These are literature values, as cited in patent US9199026B2, “Modular extracorporeal systems and methods for treating blood-borne diseases” (SOMERSET GROUP ENTERPRISES, INC., priority 2011, dated 2015).

For the first data set the following is noted: hemodialysis.
With `Cc1nnc(SCC2=C(C(=O)O)N3C(=O)[C@@H](NC(=O)Cn4cnnn4)[C@H]3SC2)s1` [Cefazolin], the “Percent removed By hemodialysis” value is listed as 50%.
Take `NC(=O)c1cc[n+](CC2=C(C(=O)O)N3C(=O)[C@@H](NC(=O)[C@@H](c4ccccc4)S(=O)(=O)[O-])[C@H]3SC2)cc1` [Cefsulodin]: the “Percent removed By hemodialysis” value is listed as 60%.
For the molecule `CC(=O)OCC1=C(C(=O)O)N2C(=O)[C@@H](NC(=O)CSc3ccncc3)[C@H]2SC1` [Cephapirin], the “Percent removed By hemodialysis” value was 20%.
`CC(=O)NC[C@H]1CN(c2ccc(N3CCOCC3)c(F)c2)C(=O)O1` [Linezolid]: the “Percent removed By hemodialysis” value was 33%.
`Nc1ccc(C(=O)O)c(O)c1` [Para-aminosalicylic Acid]: the “Percent removed By hemodialysis” value is recorded as 50%.
Regarding Penicillin, the “Percent removed By hemodialysis” value is 50%.

Staying with this data set, now noted: in vivo.
Regarding `Nc1nc(NC2CC2)c2ncn([C@H]3C=C[C@@H](CO)C3)c2n1` [Abacavir], the “Percent removed By hemodialysis” value is listed as 24%.
For `CC1(C)S[C@@H]2[C@H](/N=C/N3CCCCCC3)C(=O)N2[C@H]1C(=O)O` [Amdinocillin], the “Percent removed By hemodialysis” value is recorded as 32-70%.
Consider `CC1(C)S[C@@H]2[C@H](NC(=O)[C@H](N)c3ccc(O)cc3)C(=O)N2[C@H]1C(=O)O` [Amoxicillin], for which the “Percent removed By hemodialysis” value is on record as 30%.
For the molecule `C[C@@H](O)[C@H]1C(=O)N2C(C(=O)[O-])=C(SC3Cn4cnc[n+]4C3)[C@H](C)[C@H]12` (some centres unmarked) [Biapenem], the “Percent removed By hemodialysis” value is 90%.
For `CC1(C)S[C@@H]2[C@H](NC(=O)C(C(=O)O)c3ccccc3)C(=O)N2[C@H]1C(=O)O` (some centres unmarked) [Carbenicillin], the “Percent removed By hemodialysis” value was 50%.
Consider `N[C@@H](C(=O)N[C@@H]1C(=O)N2C(C(=O)O)=C(Cl)CS[C@H]12)c1ccccc1` [Cefaclor], for which the “Percent removed By hemodialysis” value is 33%.
As for `CO[C@@]1(NC(=O)CSCC#N)C(=O)N2C(C(=O)O)=C(CSc3nnnn3C)CS[C@@H]21` [Cefmetazole], the “Percent removed By hemodialysis” value is 60%.
Take `COCC1=C(C(=O)O)N2C(=O)[C@@H](NC(=O)/C(=N\OC)c3csc(N)n3)[C@H]2SC1` [Cefpodoxime]: the “Percent removed By hemodialysis” value is reported as 50%.
With `CC=CC1=C(C(=O)O)N2C(=O)[C@@H](NC(=O)[C@H](N)c3ccc(O)cc3)[C@H]2SC1` [Cefprozil], the “Percent removed By hemodialysis” value is given as 55%.
`COC1=C(C(=O)O)N2C(=O)[C@@H](NC(=O)[C@H](N)C3=CCC=CC3)[C@H]2SC1` [Cefroxadine]: the “Percent removed By hemodialysis” value is recorded as 50%.
In the case of `Nc1nc(/C(=C/CC(=O)O)C(=O)N[C@@H]2C(=O)N3C(C(=O)O)=CCS[C@H]23)cs1` [Ceftibuten], the “Percent removed By hemodialysis” value is reported as 39%.
In the case of `CC(=O)OCC1=C(C(=O)O)N2C(=O)[C@@H](NC(=O)CC#N)[C@H]2SC1` [Cephacetrile], the “Percent removed By hemodialysis” value was 50%.
`CC(=O)OCC1=C(C(=O)O)N2C(=O)[C@@H](NC(=O)Cc3cccs3)[C@H]2SC1` [Cephalothin]: the “Percent removed By hemodialysis” value is listed as 50%.
`CN(C)CCn1nnnc1SCC1=C(C(=O)O)N2C(=O)[C@@H](NC(=O)Cc3csc(N)n3)[C@H]2SC1` [Defotiam]: the “Percent removed By hemodialysis” value is recorded as 30-40%.
As for `NNC(=O)c1ccncc1` [Isoniazid], the “Percent removed By hemodialysis” value is given as 75%.
For the molecule `C[C@@H](O)[C@H]1C(=O)N2C(C(=O)O)=C(S[C@@H]3CN[C@H](C(=O)N(C)C)C3)[C@H](C)[C@H]12` [Meropenem], the “Percent removed By hemodialysis” value is given as 50-70%.
In the case of `CN[C@@H]1[C@H](O)[C@H](NC)[C@H]2O[C@@]3(O)C(=O)C[C@@H](C)O[C@H]3O[C@@H]2[C@H]1O` [Spectinomycin], the “Percent removed By hemodialysis” value is 50%.

For another data set the following is noted: CAPD.
`Cc1nnc(SCC2=C(C(=O)O)N3C(=O)[C@@H](NC(=O)Cn4cnnn4)[C@H]3SC2)s1` [Cefazolin]: the “Percent removed By CAPD” value was 20%.

Staying with this data set, now noted: in vivo.
Consider `CC1(C)S[C@@H]2[C@H](/N=C/N3CCCCCC3)C(=O)N2[C@H]1C(=O)O` [Amdinocillin], for which the “Percent removed By CAPD” value was “Negligible (<4%)”.
For the molecule `CO/N=C(\C(=O)N[C@@H]1C(=O)N2C(C(=O)O)=C(COC(N)=O)CS[C@H]12)c1ccco1` [Cefuroxime], the “Percent removed By CAPD” value is listed as 20%.
